Activity calls are given as the source filed them. The rule behind the calls is not given here.
Legend:
[1] = system: 4T1; assay: Induction of cell cycle arrest in mouse 4T1 cells assessed as accumulation of cells at G0/G1 phase at 1.5 uM measured after 24 hrs by PI staining by flow cytometry; type: functional
[2] = system: 4T1; assay: Induction of cell cycle arrest in mouse 4T1 cells assessed as accumulation of cells at G0/G1 phase at 6 uM measured after 24 hrs by PI staining by flow cytometry; type: functional
[3] = system: MDA-MB-231; assay: Induction of cell cycle arrest in human MDA-MB-231 cells assessed as reduction in cyclin D1 expression at 1 to 4 uM measured after 24 hrs by immunoblotting assay; type: functional, cell-based; settings: dose 1-4 µM
[4] = system: MDA-MB-231; assay: Induction of cell cycle arrest in human MDA-MB-231 cells assessed as reduction in cyclin E1 expression at 1 to 4 uM measured after 24 hrs by immunoblotting assay; type: functional, cell-based; settings: dose 1-4 µM
[5] = system: MDA-MB-231; assay: Induction of cell cycle arrest in human MDA-MB-231 cells assessed as reduction in CDK6 expression at 1 to 4 uM measured after 24 hrs by immunoblotting assay; type: functional, cell-based; settings: dose 1-4 µM
[6] = system: MDA-MB-231; assay: Induction of cell cycle arrest in human MDA-MB-231 cells assessed as reduction in p-Rb expression at 1 to 4 uM measured after 24 hrs by immunoblotting assay; type: functional, cell-based; settings: dose 1-4 µM
[7] = system: MDA-MB-231; assay: Induction of cell cycle arrest in human MDA-MB-231 cells assessed as upregulation of p21 protein expression at 1 to 4 uM measured after 24 hrs by immunoblotting assay; type: functional, cell-based; settings: dose 1-4 µM
[8] = system: MDA-MB-231; assay: Reduction of ATP level in human MDA-MB-231 cells incubated for 24 hrs by colorimetric based ATP Content Assay Kit; type: functional, cell-based; settings: dose 1-4 µM
[9] = system: 4T1; assay: Reduction of ATP level in mouse 4T1 cells incubated for 24 hrs by colorimetric based ATP Content Assay Kit; type: functional, cell-based; settings: dose 1-4 µM
[10] = system: MDA-MB-231; assay: Induction of ROS production in human MDA-MB-231 cells at 1 to 4 uM incubated for 24 hrs by flow cytometry; type: functional, cell-based; settings: dose 1-4 µM
[11] = system: 4T1; assay: Induction of ROS production in mouse 4T1 cells at 1 to 4 uM incubated for 24 hrs by flow cytometry; type: functional, cell-based; settings: dose 1-4 µM
[12] = system: MDA-MB-231; assay: Induction of mitochondrial membrane potential loss in human MDA-MB-231 cells assessed as increase in fluorescence intensity by JC-1 monomer assay; type: functional, cell-based; settings: dose 2-4 µM
[13] = system: MDA-MB-231; assay: Induction of mitochondrial membrane potential loss in human MDA-MB-231 cells assessed as decrease in fluorescence intensity by JC-1 aggregate assay; type: functional, cell-based; settings: dose 2-4 µM
[14] = system: 4T1; assay: Induction of mitochondrial membrane potential loss in mouse 4T1 cells assessed as increase in fluorescence intensity by JC-1 monomer assay; type: functional, cell-based; settings: dose 2-4 µM
[15] = system: 4T1; assay: Induction of mitochondrial membrane potential loss in mouse 4T1 cells assessed as decrease in fluorescence intensity by JC-1 aggregate assay; type: functional, cell-based; settings: dose 2-4 µM
[16] = system: MDA-MB-231; assay: Induction of DNA damage in human MDA-MB-231 cells assessed as increase in gamma-H2AX focal expression at 2 to 4 uM by immunofluorescence staining assay; type: functional, cell-based; settings: dose 2-4 µM
[17] = system: 4T1; assay: Induction of DNA damage in mouse 4T1 cells assessed as increase in gamma-H2AX focal expression at 2 to 4 uM by immunofluorescence staining assay; type: functional, cell-based; settings: dose 2-4 µM
[18] = system: MDA-MB-231; assay: Anti-tumor activity against human MDA-MB-231 cells assessed as change in expression of genes involved in TGF-beta1/Smad signaling pathway measured after 24 hrs incubation by RNA-Seq analysis; type: functional, cell-based
[19] = system: MDA-MB-231; assay: Anti-tumor activity against human MDA-MB-231 cells assessed as change in TGF-beta1/Smad signaling pathway by measuring increase in TGF-beta1 level after 24 hrs incubation by Western blot analysis; type: functional, cell-based; settings: dose 1-4 µM
[20] = system: MDA-MB-231; assay: Anti-tumor activity against human MDA-MB-231 cells assessed as change in TGF-beta1/Smad signaling pathway by measuring increase in p-Smad2 level after 24 hrs incubation by Western blot analysis; type: functional, cell-based; settings: dose 1-4 µM
[21] = system: MDA-MB-231; assay: Anti-tumor activity against human MDA-MB-231 cells assessed as change in TGF-beta1/Smad signaling pathway by measuring increase in p-Smad3 level after 24 hrs incubation by Western blot analysis; type: functional, cell-based; settings: dose 1-4 µM
[22] = system: MDA-MB-231; assay: Anti-tumor activity against human MDA-MB-231 cells assessed as change in TGF-beta1/Smad signaling pathway by measuring fluorescence intensity of TGF-beta1 level at 2 to 4 uM after 24 hrs incubation by immunofluorescence staining assay; type: functional, cell-based; settings: dose 2-4 µM
[23] = system: MDA-MB-231; assay: Anti-tumor activity against human MDA-MB-231 cells assessed as change in TGF-beta1/Smad signaling pathway by measuring fluorescence intensity of p-Smad2 level at 2 to 4 uM after 24 hrs incubation by immunofluorescence staining assay; type: functional, cell-based; settings: dose 2-4 µM
[24] = system: MDA-MB-231; assay: Anti-tumor activity against human MDA-MB-231 cells assessed as change in TGF-beta1/Smad signaling pathway by measuring fluorescence intensity of p-Smad3 level at 2 to 4 uM after 24 hrs incubation by immunofluorescence staining assay; type: functional, cell-based; settings: dose 2-4 µM
[25] = system: MDA-MB-231; assay: Induction of cell cycle arrest in human MDA-MB-231 cells assessed as accumulation of cells at G0/G1 phase measured after 24 hrs in presence of SB-431542 TGF-beta signaling inhibitor by PI staining by flow cytometry; type: functional, cell-based
[26] = system: MDA-MB-231; assay: Anti-tumor activity against human MDA-MB-231 cells assessed as decrease in cell viability at 8 uM incubated for 24 hrs in presence of SB-431542 TGF-beta signaling inhibitor by MTT assay; type: functional, cell-based
[27] = system: 4T1; assay: Anti-tumor activity against mouse 4T1 cells assessed as decrease in cell viability at 8 uM incubated for 24 hrs in presence of SB-431542 TGF-beta signaling inhibitor by MTT assay; type: functional, cell-based
[28] = system: MDA-MB-231; assay: Induction of apoptosis in human MDA-MB-231 cells assessed as increase in apoptotic rate incubated for 24 hrs in presence of SB-431542 TGF-beta signaling inhibitor by Annexin V-FITC/PI double staining by flow cytometry; type: functional, cell-based
[29] = system: 4T1; assay: Induction of apoptosis in mouse 4T1 cells assessed as increase in apoptotic rate incubated for 24 hrs in presence of SB-431542 TGF-beta signaling inhibitor by Annexin V-FITC/PI double staining by flow cytometry; type: functional, cell-based
[30] = system: 4T1; assay: Induction of cell cycle arrest in mouse 4T1 cells assessed as accumulation of cells at G0/G1 phase measured after 24 hrs in presence of SB-431542 TGF-beta signaling inhibitor by PI staining by flow cytometry; type: functional, cell-based

Compound: O=C1C[C@@H](c2ccccc2)Oc2cc(O)c([C@H](/C=C/C[C@@H](O)CCc3ccccc3)c3ccccc3)c(O)c21
- Activity [1]: 55.78%
- Activity [2]: 78.34%
- Activity [3]: Active
- Activity [4]: Active
- Activity [5]: Active
- Activity [6]: Active
- Activity [7]: Active
- inhibition [8]: Active
- inhibition [9]: Active
- Activity [10]: Active
- Activity [11]: Active
- Activity [12]: Dose-Dependent Effect
- Activity [13]: Dose-Dependent Effect
- Activity [14]: Dose-Dependent Effect
- Activity [15]: Dose-Dependent Effect
- Activity [16]: Active
- Activity [17]: Active
- Activity [18]: Active
- Activity [19]: Dose-Dependent Effect
- Activity [20]: Dose-Dependent Effect
- Activity [21]: Dose-Dependent Effect
- Activity [22]: Active
- Activity [23]: Active
- Activity [24]: Active
- Activity [25]: inactive
- Activity [26]: inactive
- Activity [27]: inactive
- Activity [28]: inactive
- Activity [29]: inactive
- Activity [30]: inactive
